The values below come from patent US6335325B1, “Acylated 4-aminopyridine derivatives as pesticides and fungicides” (Bayer Aktiengesellschaft, priority 1997, dated 2002).

Series [1] deals with caterpillars of the owlet moth (Spodoptera exigua). The experiment in a line: Spodoptera exigua Test. The series is classed as in vivo. As to conditions: active compound concentration of 0.0008%; after 6 days; dipped cabbage leaves (Brassica oleracea). Here is the method: Solvent: 7 parts by weight of dimethylformamide
Emulsifier: 1 part by weight of alkylaryl polyglycol ether
After the desired period of time, the kill in % is determined. 100% means that all caterpillars have been killed; 0% means that none of the caterpillars have been killed.

Series [2] can be described thus: logP determination by HPLC (EEC Directive 79/831 Annex V. A8). The series is classed as physicochemical. Particulars: pH 2; pH2; HPLC gradient method, acetonitrile/0.1% strength aqueous phosphoric acid. The protocol: [logP=The logP values were determined in accordance with EEC Directive 79/831 Annex V. A8 by HPLC (gradient method, acetonitrile/0.1% strength aqueous phosphoric acid]

Molecules are shown by their SMILES.

As to `CCc1nccc(N(C(=O)Cc2ccc(Oc3ccc(C(N)=S)cc3)cc2)C(=O)OC(C)C)c1Cl` [Preparation Example 1, N-(3-chloro-2-ethyl-pyridin-4-yl)-N-isopropoxycarbonyl-4-(4-aminothiocarbonylphenoxy)-phenylacetamide], the kill in % in series [1] turned out to be 100%. Moreover, in series [2], the chromatographic logP was 3.71.
